US7977346B2, “Spiro compounds and methods of use” (priority 2006, dated 2011)

How the values were obtained:
[1] = system: human tumor NSCLC A549 cell line; assay: MTT assay against human tumor NSCLC A549 cell line; type: cell-based
Excerpt: (§1) The following in vitro results are activities of some compounds in present invention against human tumor NSCLC A549 cell line and colon LOVO cell line in MTT assay.

colon LOVO cell line = assay: MTT assay against colon LOVO cell line; type: cell-based, human
Excerpt: as §1

IC50 [1] | IC50 (colon LOVO cell line) | Compound
61.9 pM | 37.5 pM | COc1cc2ncnc(Nc3ccc(F)c(Cl)c3)c2cc1OCCCN1CC2(CC2)C2(C1)OCCO2 [Example 20, N-(3-chloro-4-fluorophenyl)-7-methoxy-6-[3-(5,8-Dioxa-10-azadispiro[2.0.4.3]undecane)propoxy]quinazolin-4-amine]
51.9 pM | 118 pM | COc1cc2ncnc(Nc3ccc(Cl)c(Cl)c3)c2cc1OCCN1CC2(CC2)C2(C1)OCCO2 [Example 33, N-(3,4-dichlorophenyl)-7-methoxy-6-[2-(5,8-Dioxa-10-azadispiro[2.0.4.3]undecane)ethoxy]quinazolin-4-amine]
75 pM | 129 pM | COc1cc2ncnc(Nc3ccc(F)c(Cl)c3)c2cc1OCCCN1CC2(CC2)C2(C1)OCC(C)(C)CO2 [Example 41, N-(3-chloro-4-fluorophenyl)-7-methoxy-6-[3-(5,9-Dioxa-7,7-dimethyl-11-azadispiro[2.0.4.3]dodecane)propoxy]quinazolin-4-amine]
35.9 pM | 32.9 pM | COc1cc2ncnc(Nc3ccc(F)c(Cl)c3)c2cc1OCCCN1CC(=O)C2(CC2)C1 [Example 22, N-(3-chloro-4-fluorophenyl)-7-methoxy-6-[3-(5-azaspiro[2.4]heptan-7-one)propoxy]quinazolin-4-amine]
74.9 pM | 27.2 pM | C#Cc1cccc(Nc2ncnc3cc(OC)c(OCCN4CC(O)C5(CC5)C4)cc23)c1 (centres unmarked) [Example 30, N-(3-ethynylphenyl)-7-methoxy-6-[2-(5-azaspiro[2.4]heptan-7-ol)ethoxy]quinazolin-4-amine]
22 pM | 57 pM | COc1cc2c(Nc3ccc(Br)cc3F)ncnc2cc1OCCN1CC2(CC2)C2(C1)OCCO2 [Example 36, N-(2-fluoro-4-bromophenyl)-6-methoxy-7-[2-(5,8-Dioxa-10-azadispiro[2.0.4.3]undecane)ethoxy]quinazolin-4-amine]
104 pM | 93.4 pM | C#Cc1cccc(Nc2ncnc3cc(OC)c(OCCN4CC(=O)C5(CC5)C4)cc23)c1 [Example 29, N-(3-ethynylphenyl)-7-methoxy-6-[2-(5-azaspiro[2.4]heptan-7-one)ethoxy]quinazolin-4-amine]
54.6 pM | 98 pM | COc1cc2ncnc(Nc3cccc(C(F)(F)F)c3)c2cc1OCCN1CC2(CC2)C2(C1)OCCO2 [Example 31, N-(3-trifluoromethylphenyl)-7-methoxy-6-[2-(5,8-Dioxa-10-azadispiro[2.0.4.3]undecane)ethoxy]quinazolin-4-amine]
57.3 pM | 95.4 pM | COc1cc2ncnc(Nc3ccc(F)c(Cl)c3)c2cc1OCCN1CC(O)C2(CC2)C1 (centres unmarked) [Example 25, N-(3-chloro-4-fluorophenyl)-7-methoxy-6-[2-(5-azaspiro[2.4]heptan-7-ol)ethoxy]quinazolin-4-amine]
37.5 pM | 165 pM | COc1cc2ncnc(Nc3ccc(F)c(Cl)c3)c2cc1OCCCN1CC(O)C2(CC2)C1 (centres unmarked) [Example 24, N-(3-chloro-4-fluorophenyl)-7-methoxy-6-[3-(5-azaspiro[2.4]heptan-7-ol)propoxy]quinazolin-4-amine]
40.2 pM | 31.8 pM | COc1cc2c(Nc3ccc(Br)cc3F)ncnc2cc1OCCCN1CC2(CC2)C2(C1)OCCO2 [Example 35, N-(2-fluoro-4-bromophenyl)-6-methoxy-7-[3-(5,8-Dioxa-10-azadispiro[2.0.4.3]undecane)propoxy]quinazolin-4-amine]
42.1 pM | 139 pM | COc1cc2ncnc(Nc3ccc(F)c(Cl)c3)c2cc1OCCN1CC2(CC2)C2(C1)OCCO2 [Example 21, N-(3-chloro-4-fluorophenyl)-7-methoxy-6-[2-(5,8-Dioxa-10-azadispiro[2.0.4.3]undecane)ethoxy]quinazolin-4-amine]
96 pM | 37.6 pM | C#Cc1cccc(Nc2ncnc3cc(OC)c(OCCN4CC5(CC5)C5(C4)OCCO5)cc23)c1 [Example 28, N-(3-ethynylphenyl)-7-methoxy-6-[2-(5,8-Dioxa-10-azadispiro[2.0.4.3]undecane)ethoxy]quinazolin-4-amine]
34 pM | 171 pM | COc1cc2ncnc(Nc3ccc(F)c(Cl)c3)c2cc1OCCCN1CC2(CC2)C2(C1)OCCS2 (centres unmarked) [Example 34, N-(3-chloro-4-fluorophenyl)-7-methoxy-6-[3-(5,8-Oxathiolane-10-azadispiro[2.0.4.3]undecane)propoxy]quinazolin-4-amine]
28 pM | 32 pM | COc1cc2ncnc(Nc3cccc(Br)c3)c2cc1OCCN1CC2(CC2)C2(C1)OCCO2 [Example 32, N-(3-bromophenyl)-7-methoxy-6-[2-(5,8-Dioxa-10-azadispiro[2.0.4.3]undecane)ethoxy]quinazolin-4-amine]
73 pM | 143 pM | COc1cc2ncnc(Nc3ccc(F)c(Cl)c3)c2cc1OCCN1CC2(CC2)C2(C1)OCCCO2 [Example 38, N-(3-chloro-4-fluorophenyl)-7-methoxy-6-[2-(5,9-Dioxa-11-azadispiro[2.0.4.3]dodecane)ethoxy]quinazolin-4-amine]
23 pM | 30 pM | COc1cc2ncnc(Nc3ccc(F)c(Cl)c3)c2cc1OCCN1CC2(CC2)C2(C1)OCC(C)(C)CO2 [Example 39, N-(3-chloro-4-fluorophenyl)-7-methoxy-6-[2-(5,9-Dioxa-7,7-dimethyl-11-azadispiro[2.0.4.3]dodecane)ethoxy]quinazolin-4-amine]

Compound | IC50 [1] | IC50 (colon LOVO cell line)
COc1cc2ncnc(Nc3ccc(F)c(Cl)c3)c2cc1OCCN1CC2(CC2)C2(C1)OCCS2 (centres unmarked) [Example 37, N-(3-chloro-4-fluorophenyl)-7-methoxy-6-[2-(5,8-Oxathiolane-10-azadispiro[2.0.4.3]undecane)ethoxy]quinazolin-4-amine] | 132 pM | 55.3 pM
COc1cc2ncnc(Nc3ccc(F)c(Cl)c3)c2cc1OCCN1CC(OC)C2(CC2)C1 (centres unmarked) [Example 27, N-(3-chloro-4-fluorophenyl)-7-methoxy-6-[2-(7-methoxy-5-azaspiro[2.4]heptane)ethoxy]quinazolin-4-amine] | 212 pM | 97.8 pM
N-(3-chloro-4-fluorophenyl)-7-methoxy-6-[3-(5,9-Dioxa-11-azadispiro[2.0.4.3]dodecane)propoxy]quinazolin-4-amine [Example 40] | 42 pM | 29 pM
COc1cc2ncnc(Nc3ccc(F)c(Cl)c3)c2cc1OCCCN1CC(OC)C2(CC2)C1 (centres unmarked) [Example 26, N-(3-chloro-4-fluorophenyl)-7-methoxy-6-[3-(7-methoxy-5-azaspiro[2.4]heptane)propoxy]quinazolin-4-amine] | 91 pM | 37.6 pM
COc1cc2ncnc(Nc3ccc(F)c(Cl)c3)c2cc1OCCN1CC(=O)C2(CC2)C1 [Example 23, N-(3-chloro-4-fluorophenyl)-7-methoxy-6-[2-(5-azaspiro[2.4]heptan-7-one)ethoxy]quinazolin-4-amine] | 89.3 pM | 219 pM
